Results taken from US11214803B2, “Modulators of YAP1 expression” (Ionis Pharmaceuticals, Inc., priority 2019, dated 2022).
Strand notation (5' to 3'): a small letter for the sugar, then the base; units joined by * are phosphorothioate-linked, units joined directly phosphodiester-linked; [ ] holds rarer units or linkages, { } end groups; capitals alone tell only the bases. k = constrained ethyl (cEt); [5mC] = 5-methylcytosine; d = 2'-deoxy (DNA)

Tested on: Yap1 mRNA
Test: Antisense inhibition of human Yap1 in A-431 cells by cEt gapmers, single dose (Example 3, RTS36584)
Format: cell-based
Summary of the method: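 A-431 cells (5,000/well) took up the 3-10-3 cEt gapmers by free uptake at 2,000 nM for about 48 h. Yap1 mRNA was measured by RT-qPCR with primer probe set RTS36584, normalized to RiboGreen total RNA, and given as % of untreated control.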

[1] = Table 13, A-431 cells, 5,000 cells per well, free uptake, 2,000 nM modified oligonucleotide, approx. 48 hours, RTS36584, normalized to RIBOGREEN, Yap1 mRNA relative to untreated control cells
[2] = Table 8, A-431 cells, 5,000 cells per well, free uptake, 2,000 nM, approximately 48 hours, RTS36584, normalized to RIBOGREEN, Yap1 mRNA relative to untreated control cells
[3] = Table 9, A-431 cells, 5,000 cells per well, free uptake, 2,000 nM, approximately 48 hours, RTS36584, normalized to RIBOGREEN, Yap1 mRNA relative to untreated control cells
[4] = Table 29, Yap1 mRNA as percent of untreated control, 3-10-3 cEt gapmers targeting SEQ ID NO.: 1, and 2
[5] = Table 27, Yap1 mRNA by 3-10-3 cEt gapmers targeting SEQ ID NO.: 1, and 2, percent of untreated control
[6] = Table 35, Yap1 mRNA as percent of untreated control, 3-10-3 cEt gapmers targeting SEQ ID NO: 1 and 2, single dose
[7] = Table 26, Yap1 mRNA by 3-10-3 cEt gapmers targeting SEQ ID NO.: 1, and 2, percent of untreated control
[8] = Table 12, A-431 cells, 5,000 cells per well, free uptake, 2,000 nM modified oligonucleotide, approx. 48 hours, RTS36584, normalized to RIBOGREEN, Yap1 mRNA relative to untreated control cells
[9] = Table 34, Yap1 mRNA as percent of untreated control, 3-10-3 cEt gapmers targeting SEQ ID NO: 1 and 2, single dose
[10] = Table 11, A-431 cells, 5,000 cells per well, free uptake, 2,000 nM oligonucleotide, approx. 48 hours, primer probe set RTS36584, Yap1 mRNA normalized to RIBOGREEN, percent of untreated control
[11] = Table 10, A-431 cells, 5,000 cells per well, free uptake, 2,000 nM oligonucleotide, approx. 48 hours, primer probe set RTS36584, Yap1 mRNA normalized to RIBOGREEN, percent of untreated control

Substance: 958705 (antisense kG*kG*k[5mC]*d[5mC]*dA*dT*d[5mC]*dA*dA*dT*dA*dA*dA*kG*kA*k[5mC]) [Compound 958705]
- YAP1 (% UTC) [1]: 112 % UTC

Substance: 958348 (k[5mC]*kG*kA*dG*dT*d[5mC]*d[5mC]*d[5mC]*d[5mC]*dG*d[5mC]*dG*dG*kA*k[5mC]*kG; antisense) [Compound 958348]
- YAP1 (% UTC) [2]: 122 % UTC

Substance: 958531 (kG*kT*kA*dG*dG*dA*dG*d[5mC]*dA*dA*dG*dT*d[5mC]*kT*kT*kG; antisense) [Compound 958531]
- YAP1 (% UTC) [3]: 5 % UTC

Substance: 1074863 (kA*kT*kA*dT*dG*dA*dG*d[5mC]*dA*dT*dG*d[5mC]*dT*k[5mC]*kT*kT; antisense) [compound 1074863]
- YAP1 (% UTC) [4]: 41 % UTC

Substance: 1075629 (antisense kG*k[5mC]*k[5mC]*dG*d[5mC]*dA*dA*dA*dA*dT*dA*dT*dT*kA*kA*kT) [compound 1075629]
- YAP1 (% UTC) [5]: 100 % UTC

Substance: 1075029 (antisense kA*kT*kA*dT*dT*d[5mC]*dG*dA*d[5mC]*dA*d[5mC]*dT*dG*kG*kA*kG) [compound 1075029]
- YAP1 (% UTC) [6]: 33 % UTC

Substance: 1075628 (antisense k[5mC]*k[5mC]*kG*d[5mC]*dA*dA*dA*dA*dT*dA*dT*dT*dA*kA*kT*kT) [compound 1075628]
- YAP1 (% UTC) [7]: 118 % UTC

Substance: 958785 (antisense kG*k[5mC]*kA*dA*dT*d[5mC]*d[5mC]*dA*d[5mC]*dA*dA*dT*dT*k[5mC]*k[5mC]*kA) [Compound 958785]
- YAP1 (% UTC) [1]: 2 % UTC

Substance: 958524 (kG*k[5mC]*kA*d[5mC]*dA*dT*dT*dA*dT*dG*dA*dA*d[5mC]*k[5mC]*kT*kA; antisense) [Compound 958524]
- YAP1 (% UTC) [8]: 13 % UTC

Substance: 1074388 (kG*kA*k[5mC]*dT*dT*dG*dG*d[5mC]*dA*dT*d[5mC]*dA*dG*k[5mC]*kT*k[5mC]; antisense) [compound 1074388]
- YAP1 (% UTC) [9]: 16 % UTC

Substance: 958809 (kT*k[5mC]*kT*dT*dA*dA*d[5mC]*dA*d[5mC]*d[5mC]*dT*dG*dA*kG*k[5mC]*kT; antisense) [Compound 958809]
- YAP1 (% UTC) [8]: 66 % UTC

Substance: 958613 (antisense k[5mC]*k[5mC]*kT*dG*dA*dA*dG*d[5mC]*d[5mC]*dG*dA*dG*dT*kT*k[5mC]*kA) [Compound 958613]
- YAP1 (% UTC) [10]: 15 % UTC

Substance: 958718 (antisense kG*kA*kA*d[5mC]*dA*d[5mC]*dT*dA*dT*dA*dG*d[5mC]*dT*kT*kG*kG) [Compound 958718]
- YAP1 (% UTC) [10]: 4 % UTC

Substance: 958748 (antisense kA*k[5mC]*kA*dT*dG*dT*dG*dA*d[5mC]*dA*dT*dT*d[5mC]*k[5mC]*kG*kG) [Compound 958748]
- YAP1 (% UTC) [10]: 83 % UTC

Substance: 958360 (antisense kT*k[5mC]*kG*dA*dA*d[5mC]*dA*dT*dG*d[5mC]*dT*dG*dT*kG*kG*kA) [Compound 958360]
- YAP1 (% UTC) [2]: 12 % UTC

Substance: 958601 (k[5mC]*k[5mC]*kT*dT*dT*dA*dA*dA*dG*dG*d[5mC]*dA*d[5mC]*kT*kA*k[5mC]; antisense) [Compound 958601]
- YAP1 (% UTC) [3]: 17 % UTC

Substance: 958768 (antisense kG*kT*kG*d[5mC]*dA*dA*dG*d[5mC]*dA*dG*dG*dT*dT*k[5mC]*k[5mC]*k[5mC]) [Compound 958768]
- YAP1 (% UTC) [10]: 17 % UTC

Substance: 1074927 (antisense kT*kA*k[5mC]*dA*dA*d[5mC]*dA*dG*dG*d[5mC]*d[5mC]*dT*dG*k[5mC]*kA*kA) [compound 1074927]
- YAP1 (% UTC) [4]: 74 % UTC

Substance: 958798 (antisense kT*kG*k[5mC]*dA*dG*dT*dA*dT*dA*dA*dT*dA*dT*k[5mC]*k[5mC]*kT) [Compound 958798]
- YAP1 (% UTC) [10]: 3 % UTC

Substance: 958384 (antisense k[5mC]*k[5mC]*kT*dT*d[5mC]*d[5mC]*dT*d[5mC]*dT*dG*d[5mC]*dG*d[5mC]*kG*k[5mC]*k[5mC]) [Compound 958384]
- YAP1 (% UTC) [2]: 131 % UTC

Substance: 958725 (antisense kG*kT*k[5mC]*dA*dG*dT*dT*dA*dT*d[5mC]*d[5mC]*dT*dA*kT*k[5mC]*k[5mC]) [Compound 958725]
- YAP1 (% UTC) [1]: 1 % UTC

Substance: 958540 (kA*kT*kT*d[5mC]*dT*dA*dT*d[5mC]*d[5mC]*dA*dG*dG*dG*kT*k[5mC]*kA; antisense) [Compound 958540]
- YAP1 (% UTC) [1]: 8 % UTC

Substance: 1074383 (kT*k[5mC]*kA*dA*dG*dG*dT*dA*dG*dT*d[5mC]*dT*dG*kG*kG*kA; antisense) [compound 1074383]
- YAP1 (% UTC) [4]: 40 % UTC

Substance: 958708 (antisense kA*kT*kG*dT*d[5mC]*dA*dG*dA*dT*dG*dT*d[5mC]*dA*kA*kT*kT) [Compound 958708]
- YAP1 (% UTC) [10]: 19 % UTC

Substance: 1076463 (kG*kA*kT*dT*dA*dG*dT*dA*dA*d[5mC]*dA*d[5mC]*dT*kG*kA*kT; antisense) [compound 1076463]
- YAP1 (% UTC) [4]: 38 % UTC

Substance: 1076303 (k[5mC]*kT*kA*dA*dT*dA*dA*dG*d[5mC]*d[5mC]*dT*d[5mC]*dA*k[5mC]*k[5mC]*kT; antisense) [compound 1076303]
- YAP1 (% UTC) [4]: 34 % UTC

Substance: 958672 (kG*kA*kA*d[5mC]*dT*dT*dA*dG*dT*dT*d[5mC]*d[5mC]*d[5mC]*kT*kT*k[5mC]; antisense) [Compound 958672]
- YAP1 (% UTC) [11]: 67 % UTC

Substance: 958548 (kG*kA*k[5mC]*dA*d[5mC]*dA*dT*dA*d[5mC]*dT*d[5mC]*dT*dA*kG*kT*kT; antisense) [Compound 958548]
- YAP1 (% UTC) [10]: 21 % UTC

Substance: 958806 (kT*kG*k[5mC]*d[5mC]*dT*dA*dG*dG*dG*dT*dT*d[5mC]*dT*kG*kT*kG; antisense) [Compound 958806]
- YAP1 (% UTC) [3]: 30 % UTC

Substance: 958555 (kG*k[5mC]*kT*dT*dA*dT*dA*dT*dT*dG*dA*dA*dG*kA*kG*kT; antisense) [Compound 958555]
- YAP1 (% UTC) [1]: 4 % UTC

Substance: 958413 (antisense k[5mC]*kT*kA*dG*dT*dA*dA*dT*d[5mC]*dT*dT*dA*d[5mC]*kT*kG*kG) [Compound 958413]
- YAP1 (% UTC) [2]: 80 % UTC

Substance: 1076565 (k[5mC]*kA*kT*dT*dA*dA*dG*dT*d[5mC]*dA*d[5mC]*dA*dG*k[5mC]*kA*kT; antisense) [compound 1076565]
- YAP1 (% UTC) [6]: 74 % UTC

Substance: 958812 (kT*kA*k[5mC]*dT*dA*dT*dA*dA*dG*dA*d[5mC]*dA*d[5mC]*k[5mC]*kA*kA; antisense) [Compound 958812]
- YAP1 (% UTC) [11]: 31 % UTC

Substance: 958446 (antisense k[5mC]*k[5mC]*kT*dG*dA*d[5mC]*d[5mC]*d[5mC]*dA*dG*dG*d[5mC]*dG*kA*kG*k[5mC]) [Compound 958446]
- YAP1 (% UTC) [3]: 70 % UTC

Substance: 1074996 (antisense kA*kA*kT*dA*dA*dA*dT*dG*d[5mC]*dT*dT*dA*d[5mC]*kG*kG*kG) [compound 1074996]
- YAP1 (% UTC) [9]: 60 % UTC

Substance: 958659 (kG*kT*kT*dG*dT*dA*dT*dT*dA*d[5mC]*dT*d[5mC]*dT*k[5mC]*k[5mC]*kA; antisense) [Compound 958659]
- YAP1 (% UTC) [8]: 2 % UTC

Substance: 1075853 (kG*kA*kG*d[5mC]*dG*dA*dT*dA*dA*dG*d[5mC]*dT*dG*kT*kA*kT; antisense) [compound 1075853]
- YAP1 (% UTC) [5]: 72 % UTC

Substance: 958664 (kA*k[5mC]*kG*dA*dA*d[5mC]*dT*dA*dA*dG*dG*dT*dG*kT*kA*k[5mC]; antisense) [Compound 958664]
- YAP1 (% UTC) [8]: 40 % UTC

Substance: 958352 (k[5mC]*kG*kG*dT*d[5mC]*dT*d[5mC]*d[5mC]*dG*dA*dG*dT*d[5mC]*k[5mC]*k[5mC]*k[5mC]; antisense) [Compound 958352]
- YAP1 (% UTC) [2]: 110 % UTC

Substance: 1075020 (antisense kT*kT*kA*dA*dT*dT*dA*dG*d[5mC]*dA*dT*dT*dA*kG*kA*kG) [compound 1075020]
- YAP1 (% UTC) [7]: 30 % UTC

Substance: 958643 (antisense kT*kA*kG*d[5mC]*dA*dA*d[5mC]*d[5mC]*d[5mC]*dA*d[5mC]*d[5mC]*d[5mC]*kT*kG*kG) [Compound 958643]
- YAP1 (% UTC) [10]: 59 % UTC

Substance: 958690 (antisense kT*kG*kG*dA*d[5mC]*dT*d[5mC]*dT*dT*dG*dA*dT*d[5mC]*kA*k[5mC]*kA) [Compound 958690]
- YAP1 (% UTC) [1]: 26 % UTC

Substance: 958807 (kT*k[5mC]*kA*dT*dT*dG*dT*dA*dG*dT*d[5mC]*dT*dG*kT*k[5mC]*kT; antisense) [Compound 958807]
- YAP1 (% UTC) [11]: 3 % UTC

Substance: 958816 (kG*kT*kG*dA*dT*dA*dA*d[5mC]*dA*dT*dA*dT*d[5mC]*k[5mC]*k[5mC]*kA; antisense) [Compound 958816]
- YAP1 (% UTC) [3]: 71 % UTC

Substance: 958410 (antisense kT*kT*kT*dA*d[5mC]*d[5mC]*dA*dA*dA*dA*d[5mC]*dG*dA*kG*kG*kG) [Compound 958410]
- YAP1 (% UTC) [2]: 70 % UTC

Substance: 958561 (kA*k[5mC]*kA*d[5mC]*dA*dG*dA*dG*dG*dT*dG*d[5mC]*dT*kA*kG*k[5mC]; antisense) [Compound 958561]
- YAP1 (% UTC) [3]: 48 % UTC
